Laboratory results taken from US20210040089A1, “KRAS MUTANT PROTEIN INHIBITORS” (Jacobio Pharmaceuticals Co., Ltd., priority 2019, published 2021).

Columns and labels:
[1] = system: NCI-H1373 cells; assay: NCI-H1373 xenograft model; type: in vivo, female BALB/c mice; conditions: for TGI % / Tumor volume at the end (Day 22): Day 22
Description: 4. NCI-H1373 xenograft model
NCI-H1373 cells (5.0E+06 cells) were injected subcutaneously into the right flank of female BALB/c mice (6-8 weeks) in a mixture with Matrigel (BD Bioscience). Mice were monitored daily and caliper measurements began when tumors became visible. Tumor volume was calculated by measuring two perpendicular diameters using the following formula: (L*w^2)/2 in which L and w refer to the length and width tumor diameter, respectively. When the average tumor volume reached 150-200 mm^3, mice were grouped (n=6/group) and treated with compounds. Tumor volume and mice weight was measured twice a week during treatment (˜3 weeks). Tumor growth inhibition rates were calculated by TGI %=(1−(Vt−Vt0)/(Vc−Vc0))*100%, where Vc, Vt are the mean tumor volume of control and treated groups at the end of the study, and Vc0 and Vt0 are the mean tumor volume of control and treated groups at the start.

[2] = system: NCI-H358 cells express KRAS G12C; assay: Cell growth inhibition assay (CCK-8); type: cell-based; conditions: Homo sapiens, 144 h; NCI-H358, 6 days incubation
In short: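 Antiproliferative read-out: KRAS G12C-mutant NCI-H358 lung cancer cells (3000/well) exposed to compounds in RPMI 1640 with 10% FBS for 6 days at 37°C. Viability by CCK-8 (OD450) after 1.5-2 h; IC50 from 4-parameter logistic fit.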

[3] = target: T1, KRAS G12C (Homo sapiens, UniProt P01116, G12C); assay: SOS1 catalyzed nucleotide exchange assay (TR-FRET); type: biochemical; conditions: GDP-loaded HIS-KRAS(G12C), 1 hour pre-incubation with compound
T1 construct: HIS-KRAS (G12C, aa 2-185, Sino biological); purchased Sino biological
In short: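 EDTA-stripped, GDP-loaded His-KRAS G12C (aa 2-185; 3 nM final) preincubated 1 h with compound, then SOS1 ExD (aa 564-1049; 2 μM) and BODIPY-FL GTP (80 nM) added for 4 h at 25 °C. TR-FRET via anti-His Tb cryptate (515/486 nm ratio); IC50 from 4-parameter logistic fit.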

[4] = system: Phospho-ERK1/2(THR202/TYR204) in NCI-H358 cells express KRAS G12C; assay: Phospho-ERK1/2(THR202/TYR204) HTRF assay; type: cell-based; conditions: Homo sapiens; NCI-H358, 2 hours incubation; read-out: p-ERK inhibition in NCI-H358 IC50
In short: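 Compounds applied to attached cells for 2 h at 37 °C in RPMI 1640 with 0.1% FBS. Lysate phospho-ERK1/2 detected by HTRF after 4 h antibody incubation at 25 °C; IC50 from 4-parameter logistic fit.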

T1 sequence (P01116 2-185 isoform P01116-2 G12C): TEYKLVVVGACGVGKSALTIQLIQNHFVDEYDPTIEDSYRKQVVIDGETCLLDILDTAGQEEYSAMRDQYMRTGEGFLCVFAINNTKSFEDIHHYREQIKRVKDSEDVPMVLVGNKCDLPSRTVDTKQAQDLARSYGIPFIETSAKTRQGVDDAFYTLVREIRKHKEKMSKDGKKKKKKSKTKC

Compound	TGI % ([1]; Table 2, 10 mg/kg, QD) [%]	Tumor volume at the end (Day 22) ([1]; Table 2, 10 mg/kg, QD) [mm^3]	TGI % ([1]; Table 3, 10 mg/kg, QD) [%]	Tumor volume at the end (Day 22) ([1]; Table 3, 10 mg/kg, QD) [mm^3]	Tumor volume at the start ([1]; Table 3, 10 mg/kg, QD) [mm^3]	TGI % ([1]; Table 2, 10 mg/kg, BID) [%]	Tumor volume at the end (Day 22) ([1]; Table 2, 10 mg/kg, BID) [mm^3]	Tumor volume at the start ([1]; Table 2, 10 mg/kg, BID) [mm^3]	IC50 [2] [nM]	IC50 [3] [nM]	IC50 [4] [nM]
C=C(F)C(=O)N1CCN(c2nc(OCC3CCCN3C)nc3c2CCN(c2cccc4cccc(Cl)c24)C3)C[C@@H]1CC#N (some centres unmarked) [MRTX 849, MRTX849, reference compound]	79.0	553	86.3	355	188						
C=CC(=O)N1CCN(c2nc(OCC3(CN4CCCC4)CC3)nc3c2CCN(c2cccc4cccc(C)c24)C3)CC1CC#N (centres unmarked) [Compound 56, 2-(1-acryloyl-4-(7-(8-methylnaphthalen-1-yl)-2-((1-(pyrrolidin-1-ylmethyl)cyclopropyl)methoxy)-5,6,7,8-tetrahydropyrido[3,4-d]pyrimidin-4-yl)piperazin-2-yl)acetonitrile]						102.5	148	191	22.4	3.19	38.2
C=C(F)C(=O)N1CCN(c2nc(OCC3(CN(C)C)CC3)nc3c2CCN(c2cccc4cccc(C)c24)C3)C[C@@H]1CC#N [Compound 83, (S)-2-(4-(2-((1-((dimethylamino)methyl)cyclopropyl)methoxy)-7-(8-methylnaphthalen-1-yl)-5,6,7,8-tetrahydropyrido[3,4-d]pyrimidin-4-yl)-1-(2-fluoroacryloyl)piperazin-2-yl)acetonitrile]						89.4	374	191	116	3.9	190
Cc1cccc2cccc(N3CCc4c(nc(OCC5(CN(C)C)CC5)nc4N4CCN(C(=O)/C=C/CF)[C@@H](CC#N)C4)C3)c12 [Compound 68, (S,E)-2-(4-(2-((1-((dimethylamino)methyl)cyclopropyl)methoxy)-7-(8-methylnaphthalen-1-yl)-5,6,7,8-tetrahydropyrido[3,4-d]pyrimidin-4-yl)-1-(4-fluorobut-2-enoyl)piperazin-2-yl)acetonitrile]						82.6	490	191	51.5	1.6	69.2
Cc1cccc2cccc(N3CCc4c(nc(OCC5(CN(C)C)CC5)nc4N4CCN(C(=O)/C=C/CN(C)C)C(CC#N)C4)C3)c12 (centres unmarked) [Compound 85, (E)-2-(1-(4-(dimethylamino)but-2-enoyl)-4-(2-((1-((dimethylamino)methyl)cyclopropyl)methoxy)-7-(8-methylnaphthalen-1-yl)-5,6,7,8-tetrahydropyrido[3,4-d]pyrimidin-4-yl)piperazin-2-yl)acetonitrile]									132	2.86	153
C=CC(=O)N1CCN(c2nc(OCC3(CN4CCCC4)CC3)nc3c2CCN(c2cccc4ccccc24)C3)CC1CC#N (centres unmarked) [Compound 4, 2-(1-acryloyl-4-(7-(naphthalen-1-yl)-2-((1-(pyrrolidin-1-ylmethyl)cyclopropyl)methoxy)-5,6,7,8-tetrahydropyrido[3,4-d]pyrimidin-4-yl)piperazin-2-yl)acetonitrile]									93.3	18.9	97.7
C=CC(=O)N1CCN(c2nc(OCC3(CN4CCCC4)CC3)nc3c2CCN(c2cccc4cccc(C)c24)C3)C[C@@H]1CC#N [Compound 67, (S)-2-(1-acryloyl-4-(7-(8-methylnaphthalen-1-yl)-2-((1-(pyrrolidin-1-ylmethyl)cyclopropyl)methoxy)-5,6,7,8-tetrahydropyrido[3,4-d]pyrimidin-4-yl)piperazin-2-yl)acetonitrile]			106.1	114	188				20.4	1.84	22.4
C=CC(=O)N1CCN(c2nc(OCC3(CN4CCC4)CC3)nc3c2CCN(c2cccc(Cl)c2C(F)(F)F)C3)CC1CC#N (centres unmarked) [Compound 39, 2-(1-acryloyl-4-(2-((1-(azetidin-1-ylmethyl)cyclopropyl)methoxy)-7-(3-chloro-2-(trifluoromethyl)phenyl)-5,6,7,8-tetrahydropyrido[3,4-d]pyrimidin-4-yl)piperazin-2-yl)acetonitrile]									104	7.28	79.6
C=C(F)C(=O)N1CCN(c2nc(OCC3(CN4CCN(C)CC4)CC3)nc3c2CCN(c2cccc4cccc(C)c24)C3)CC1CC#N (centres unmarked) [Compound 71, 2-(1-(2-fluoroacryloyl)-4-(7-(8-methylnaphthalen-1-yl)-2-((1-((4-methylpiperazin-1-yl)methyl)cyclopropyl)methoxy)-5,6,7,8-tetrahydropyrido[3,4-d]pyrimidin-4-yl)piperazin-2-yl)acetonitrile]									369	7.57	505
C=CC(=O)N1CCN(c2nc(OCC3(CN4CCN(C(C)=O)CC4)CC3)nc3c2CCN(c2cccc4cccc(C)c24)C3)CC1CC#N (centres unmarked) [Compound 66, 2-(4-(2-((1-((4-acetylpiperazin-1-yl)methyl)cyclopropyl)methoxy)-7-(8-methylnaphthalen-1-yl)-5,6,7,8-tetrahydropyrido[3,4-d]pyrimidin-4-yl)-1-acryloylpiperazin-2-yl)acetonitrile]									25.1	1.46	13.6
C=CC(=O)N1CCN(c2nc(OCC3(C(=O)N4CCN(C)CC4)CC3)nc3c2CCN(c2cccc4cccc(C)c24)C3)CC1CC#N (centres unmarked) [Compound 63, 2-(1-acryloyl-4-(7-(8-methylnaphthalen-1-yl)-2-((1-(4-methylpiperazine-1-carbonyl)cyclopropyl)methoxy)-5,6,7,8-tetrahydropyrido[3,4-d]pyrimidin-4-yl)piperazin-2-yl)acetonitrile]									861	30.9	533
C=CC(=O)N1CCN(c2nc(OCC3(CN4CCCC4)CCC3)nc3c2CCN(c2cccc4ccccc24)C3)CC1CC#N (centres unmarked) [Compound 44, 2-(1-acryloyl-4-(7-(naphthalen-1-yl)-2-((1-(pyrrolidin-1-ylmethyl)cyclobutyl)methoxy)-5,6,7,8-tetrahydropyrido[3,4-d]pyrimidin-4-yl)piperazin-2-yl)acetonitrile]									742	33.2	220
C=CC(=O)N1CCN(c2nc(OCC3(N(C)C)CC3)nc3c2CCN(c2cccc4ccccc24)C3)CC1CC#N (centres unmarked) [Compound 12, 2-(1-acryloyl-4-(2-((1-(dimethylamino)cyclopropyl)methoxy)-7-(naphthalen-1-yl)-5,6,7,8-tetrahydropyrido[3,4-d]pyrimidin-4-yl)piperazin-2-yl)acetonitrile]									645	176	518
C=CC(=O)N1CCN(c2nc(OCC3CC(N(C)C)C3)nc3c2CCN(c2cccc4ccccc24)C3)CC1CC#N (centres unmarked) [Compound 8, 2-(1-acryloyl-4-(2-((3-(dimethylamino)cyclobutyl)methoxy)-7-(naphthalen-1-yl)-5,6,7,8-tetrahydropyrido[3,4-d]pyrimidin-4-yl)piperazin-2-yl)acetonitrile]									3470	408	769
C=CC(=O)N1CCN(c2nc(OCC3(CN4CC(F)C4)CC3)nc3c2CCN(c2cccc4cccc(C)c24)C3)CC1CC#N (centres unmarked) [Compound 62, 2-(1-acryloyl-4-(2-((1-((3-fluoroazetidin-1-yl)methyl)cyclopropyl)methoxy)-7-(8-methylnaphthalen-1-yl)-5,6,7,8-tetrahydropyrido[3,4-d]pyrimidin-4-yl)piperazin-2-yl)acetonitrile]									66.9	2.34	43
